The text below walks through data of patent US11000033B2, “Ketone or oxime compound, and herbicide” (NISSAN CHEMICAL CORPORATION, priority 2014, dated 2021).

Assay type in all cases: in vivo
The test system of series [1] is Echinochloa crus-galli var. crus-galli. In words: Test Example 4: herbicidal effect by soil treatment (symbol H). The following applies: application herbicide amount 320 g/ha. In outline: (§1)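 Seeds were sown in sterilized diluvial soil, covered with about 1.5 cm of soil, and the soil surface was sprayed with a water-diluted emulsion of the compound at a predetermined rate. Plants grew in a greenhouse at 25° C. to 30° C.; effects were scored visually 3 weeks after application.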

A further series relates to Avena fatua. In words: Test Example 5: herbicidal effect by foliage application, plastic box (symbol I). The settings on record: 320 g/ha, 3 weeks after application. An outline of the steps:
(§2)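 Greenhouse foliar test: seedlings at 14 days, grown 25° C. to 30° C. in sterilized diluvial soil; compound applied as an aqueous dilution of an emulsion; response read 3 weeks after spraying.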

For another series, the system named is Setaria viridis. In words: Test Example 5: herbicidal effect by foliage application, plastic box (symbol G). The settings on record: 320 g/ha, 3 weeks after application. In outline: as §2
Another series concerns rice plant. In words: Test Example 5: effect on crop by foliage application, plastic box (symbol b). The following applies: 320 g/ha, 3 weeks after application. In outline:
(§3)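 Diluvial soil, sterilized and boxed (21 × 13 × 7 cm), received spot-sown seed covered by about 1.5 cm soil; plants were then greenhouse-grown at 25–30° C.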

The subject of a further series is Apera spica-venti. In words: Test Example 4: herbicidal effect by soil treatment (symbol L). The following applies: application herbicide amount 320 g/ha. In outline: as §1
For a further series, the system named is corn. Kind of series: Test Example 4: effect on crop by soil treatment (symbol c). The following applies: application herbicide amount 320 g/ha. In outline: (§4)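 Soil-treatment setup: crop and weed seeds were spot-sown into sterilized diluvial soil, then buried beneath approximately 1.5 cm of it, and the boxes were housed in a 25–30° C. greenhouse.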
The next series deals with wheat. In words: Test Example 5: effect on crop by foliage application, plastic box (symbol e). The following applies: 320 g/ha, 3 weeks after application. In outline:
as §3

In the next series the test system is Stellaria media. In words: Test Example 5: herbicidal effect by foliage application, plastic box (symbol P). The settings on record: 320 g/ha, 3 weeks after application. In outline: as §2
A further series relates to rice. Kind of series: Test Example 4: effect on crop by soil treatment (symbol b). The following applies: application herbicide amount 320 g/ha. An outline of the steps: as §4
Series [2] deals with Lolium multiflorum Lam. In words: Test Example 4: herbicidal effect by soil treatment (symbol K). The settings on record: application herbicide amount 320 g/ha. An outline of the steps:
as §1

The subject of a further series is Alopecurus myosuroides. Kind of series: Test Example 5: herbicidal effect by foliage application, plastic box (symbol J). The settings on record: 320 g/ha, 3 weeks after application. An outline of the steps:
as §2

In the next series the test system is Cyperus difformis. In words: Test Example 3: herbicidal effect by foliage application, Wagner pot (symbol E). The following applies: application herbicide amount 320 g/ha. In outline:
(§5)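 Rating at 3 weeks post-spray, by defined criteria. Treatment: emulsion diluted with water to a predetermined amount, applied evenly to foliage of 14-day-old plants raised in alluvial soil flooded 0.1–0.5 cm deep at 25–30 °C, rice co-sown.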

Series [3] deals with Lolium multiflorum Lam. In words: Test Example 5: herbicidal effect by foliage application, plastic box (symbol K). The settings on record: 320 g/ha, 3 weeks after application. In outline:
as §2

A further series relates to Scirpus juncoides. Kind of series: Test Example 2: herbicidal activity, application during weed generation in submerged conditions (symbol B). The following applies: Table 23; application herbicide amount 320 g/ha; grade 0-5 by criteria of Test Example 1. An outline of the steps:
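Flooded-soil post-emergence test: emulsion of compound, water-diluted to target rate, applied to paddy water surface at 1–2 leaf stage of mixed-sown weeds (alluvial soil, 4 cm water, 25–30° C. greenhouse); visual rating 3 weeks after application.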

A further series has as its system Galium spurium. Kind of series: Test Example 4: herbicidal effect by soil treatment (symbol Q). The following applies: application herbicide amount 320 g/ha. An outline of the steps:
as §1

Series [4] relates to Echinochloa crus-galli var. crus-galli. In words: Test Example 3: herbicidal effect by foliage application, Wagner pot (symbol H). The following applies: application herbicide amount 320 g/ha. In outline: as §5
Another series relates to Veronica persica. In words: Test Example 5: herbicidal effect by foliage application, plastic box (symbol R). The settings on record: 320 g/ha, 3 weeks after application. In outline:
as §2

`CCC(=O)CC1CC(O)=C(c2c(C)cc(C)cc2C)C1=O` (stereo not shown) [2-006]: the “H: Echinochloa crus-galli var. crus-galli, herbicidal effect grade” value in series [1] was 5 (Herbicidal ratio of 90% or more (almost completely withered)). Besides, in the series with Avena fatua, the “I: Avena fatua, herbicidal effect grade” value was 3 (Herbicidal ratio of 40% or higher and lower than 70%). Also, the “G: Setaria viridis, herbicidal effect grade” value in the series on Setaria viridis is 3 (Herbicidal ratio of 40% or higher and lower than 70%). For the same compound, the “b: directly sowed rice plant, effect on crop grade” value with rice plant was 4 (Herbicidal ratio of 70% or higher and lower than 90%); in the series with rice, 5 (Herbicidal ratio of 90% or more (almost completely withered)). Moreover, the “L: Apera spica-venti, herbicidal effect grade” value in the series with Apera spica-venti is reported as 5 (Herbicidal ratio of 90% or more (almost completely withered)). In addition, in the series with corn, the “c: corn, effect on crop grade” value is 2 (Herbicidal ratio of 20% or higher and lower than 40%). In addition, in the series on wheat, the “e: wheat, effect on crop grade” value was 0 (Herbicidal ratio of 5% or lower (almost no effect)). Further, the “P: Stellaria media, herbicidal effect grade” value with Stellaria media is recorded as 0 (Herbicidal ratio of 5% or lower (almost no effect)). For the same compound, the “K: Lolium multiflorum Lam., herbicidal effect grade” value in the series on Lolium multiflorum Lam. [2] and with Lolium multiflorum Lam. [3] was 5 (Herbicidal ratio of 90% or more (almost completely withered)) each time. Moreover, the “J: Alopecurus myosuroides, herbicidal effect grade” value in the series on Alopecurus myosuroides was 4 (Herbicidal ratio of 70% or higher and lower than 90%). Further, the “herbicidal effect on E, grade 0-5” value in the series on Cyperus difformis is 5 (Herbicidal ratio of 90% or more (almost completely withered)). For the same compound, the “Herbicidal effect grade, B: Scirpus juncoides” value in the series with Scirpus juncoides was 2 (Herbicidal ratio of 20% or higher and lower than 40%). The “Q: Galium spurium, herbicidal effect grade” value with Galium spurium was 0 (Herbicidal ratio of 5% or lower (almost no effect)). Further, in [4], the “herbicidal effect on H (Echinochloa crus-galli var. crus-galli), grade 0-5” value is recorded as 5 (Herbicidal ratio of 90% or more (almost completely withered)). The “R: Veronica persica, herbicidal effect grade” value in the series with Veronica persica is 0 (Herbicidal ratio of 5% or lower (almost no effect)).
With `CON=CC1CC(O)=C(c2c(C)cc(C)cc2C)C1=O` (mixture of isomers) [3-001], the “H: Echinochloa crus-galli var. crus-galli, herbicidal effect grade” value in series [1] was 0 (Herbicidal ratio of 5% or lower (almost no effect)). The “I: Avena fatua, herbicidal effect grade” value in the series on Avena fatua is 2 (Herbicidal ratio of 20% or higher and lower than 40%). For the same compound, the “G: Setaria viridis, herbicidal effect grade” value with Setaria viridis is 3 (Herbicidal ratio of 40% or higher and lower than 70%). Also, the “b: directly sowed rice plant, effect on crop grade” value is 4 (Herbicidal ratio of 70% or higher and lower than 90%) with rice plant; 2 (Herbicidal ratio of 20% or higher and lower than 40%) in the series with rice. For the same compound, in the series with Apera spica-venti, the “L: Apera spica-venti, herbicidal effect grade” value is recorded as 5 (Herbicidal ratio of 90% or more (almost completely withered)). Besides, the “c: corn, effect on crop grade” value in the series on corn is recorded as 0 (Herbicidal ratio of 5% or lower (almost no effect)). In addition, the “e: wheat, effect on crop grade” value with wheat is recorded as 0 (Herbicidal ratio of 5% or lower (almost no effect)). In addition, in the series on Stellaria media, the “P: Stellaria media, herbicidal effect grade” value is given as 0 (Herbicidal ratio of 5% or lower (almost no effect)). Moreover, the “K: Lolium multiflorum Lam., herbicidal effect grade” value in the series with Lolium multiflorum Lam. [2] was 4 (Herbicidal ratio of 70% or higher and lower than 90%); in the series on Lolium multiflorum Lam. [3] it was 4 (Herbicidal ratio of 70% or higher and lower than 90%). The “J: Alopecurus myosuroides, herbicidal effect grade” value with Alopecurus myosuroides is 3 (Herbicidal ratio of 40% or higher and lower than 70%). The “herbicidal effect on E, grade 0-5” value in the series on Cyperus difformis was 0 (Herbicidal ratio of 5% or lower (almost no effect)). Further, in the series on Scirpus juncoides, the “Herbicidal effect grade, B: Scirpus juncoides” value is reported as 0 (Herbicidal ratio of 5% or lower (almost no effect)). Also, the “Q: Galium spurium, herbicidal effect grade” value in the series with Galium spurium is 0 (Herbicidal ratio of 5% or lower (almost no effect)). For the same compound, the “herbicidal effect on H (Echinochloa crus-galli var. crus-galli), grade 0-5” value in series [4] was 3 (Herbicidal ratio of 40% or higher and lower than 70%). Also, the “R: Veronica persica, herbicidal effect grade” value with Veronica persica was 0 (Herbicidal ratio of 5% or lower (almost no effect)).
